Patent US8080523B2 (The Regents of the University of California, priority 2004, dated 2011)
Positions of bridges follow the written chain, without caps; N, C: chain ends. Residues, ends and D or L forms follow the SMILES beside them.

Experiments:
Assay type in all cases: cell-based
Kv1.1 = biological target: T1, Kv1.1 (Mus musculus, UniProt P16388); assay: Patch-clamp block of Kv1.1 channels stably expressed in L929 cells
T1 construct: expressed in transfected cells
Experimental: (§1) Kds were determined from the dose-response curves shown using Microcal Origin software.

Kv1.2 [1] = biological target: Kv1.2 (UniProt P63142); assay: Ion channel specificity panel: Kv1.2; settings: read-out: Kd on Kv1.2
Source text: (§2) Margatoxin, a peptide from scorpion venom that has been touted as a specific Kv1.3 inhibitor (Koo et al., 1997; Lin et al., 1993; Middleton et al., 2003) was also not specific.

Kv1.2 [2] = assay: Ion channel specificity panel: Kv1.2
Source text: as §2

Kv1.3 = biological target: T2, Kv1.3 (Mus musculus, UniProt P16390); assay: Patch-clamp block of Kv1.3 channels stably expressed in L929 cells; settings: cloned channel, dose-response curves
T2 construct: expressed in transfected cells
Experimental: as §1

Kv1.6 = Kv1.6 (Homo sapiens, UniProt P17658); assay: Ion channel specificity panel: Kv1.6
Source text: as §2

Kv3.2 = assay: Ion channel specificity panel: Kv3.2
Source text: as §2

Kv1.5 = Kv1.5 (Homo sapiens, UniProt P22460); assay: Ion channel specificity panel: Kv1.5
Source text: as §2

T1 sequence (P16388 whole entry): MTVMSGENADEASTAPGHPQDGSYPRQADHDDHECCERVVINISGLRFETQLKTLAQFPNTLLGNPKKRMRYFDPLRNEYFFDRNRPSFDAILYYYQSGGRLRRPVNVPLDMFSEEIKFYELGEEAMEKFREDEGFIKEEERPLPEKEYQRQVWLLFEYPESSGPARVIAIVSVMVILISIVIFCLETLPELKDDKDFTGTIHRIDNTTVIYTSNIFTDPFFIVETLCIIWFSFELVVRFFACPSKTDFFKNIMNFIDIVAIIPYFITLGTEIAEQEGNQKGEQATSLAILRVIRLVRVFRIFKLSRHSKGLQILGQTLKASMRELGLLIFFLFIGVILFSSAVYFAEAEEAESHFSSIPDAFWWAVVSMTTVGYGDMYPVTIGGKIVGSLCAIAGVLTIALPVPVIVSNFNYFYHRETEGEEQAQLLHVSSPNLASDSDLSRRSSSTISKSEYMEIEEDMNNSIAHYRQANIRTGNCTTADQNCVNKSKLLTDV
Kv1.6, sequence (P17658 whole entry): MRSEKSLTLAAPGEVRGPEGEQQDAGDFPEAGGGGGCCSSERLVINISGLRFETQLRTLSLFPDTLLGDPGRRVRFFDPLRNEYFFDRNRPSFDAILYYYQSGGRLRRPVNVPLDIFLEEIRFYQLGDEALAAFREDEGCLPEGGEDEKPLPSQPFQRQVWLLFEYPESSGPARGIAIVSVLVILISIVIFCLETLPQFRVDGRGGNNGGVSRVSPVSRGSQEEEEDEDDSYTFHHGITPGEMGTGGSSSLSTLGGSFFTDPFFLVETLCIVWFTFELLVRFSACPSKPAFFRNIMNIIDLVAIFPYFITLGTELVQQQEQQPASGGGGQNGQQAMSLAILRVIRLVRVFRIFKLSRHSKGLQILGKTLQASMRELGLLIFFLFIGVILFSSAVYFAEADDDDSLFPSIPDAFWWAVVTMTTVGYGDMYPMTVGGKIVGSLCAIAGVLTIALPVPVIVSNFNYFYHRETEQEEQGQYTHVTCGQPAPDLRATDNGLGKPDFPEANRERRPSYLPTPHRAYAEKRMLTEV
Kv1.5, sequence (P22460 whole entry): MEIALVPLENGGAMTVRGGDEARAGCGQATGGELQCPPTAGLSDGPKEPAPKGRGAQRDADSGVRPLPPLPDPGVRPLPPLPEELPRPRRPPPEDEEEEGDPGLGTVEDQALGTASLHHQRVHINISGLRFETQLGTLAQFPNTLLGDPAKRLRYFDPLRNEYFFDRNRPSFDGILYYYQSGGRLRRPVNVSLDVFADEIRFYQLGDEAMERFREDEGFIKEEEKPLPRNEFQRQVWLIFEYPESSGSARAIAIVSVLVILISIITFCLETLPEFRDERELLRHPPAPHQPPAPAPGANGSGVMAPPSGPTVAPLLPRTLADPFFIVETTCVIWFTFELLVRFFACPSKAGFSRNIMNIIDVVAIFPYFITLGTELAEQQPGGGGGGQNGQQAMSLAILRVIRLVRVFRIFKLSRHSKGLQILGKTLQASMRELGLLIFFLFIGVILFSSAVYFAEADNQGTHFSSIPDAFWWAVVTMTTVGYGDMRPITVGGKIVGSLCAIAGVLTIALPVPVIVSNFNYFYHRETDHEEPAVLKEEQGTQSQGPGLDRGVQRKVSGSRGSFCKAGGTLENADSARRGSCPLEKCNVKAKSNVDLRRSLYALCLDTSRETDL
T2 sequence (P16390 whole entry): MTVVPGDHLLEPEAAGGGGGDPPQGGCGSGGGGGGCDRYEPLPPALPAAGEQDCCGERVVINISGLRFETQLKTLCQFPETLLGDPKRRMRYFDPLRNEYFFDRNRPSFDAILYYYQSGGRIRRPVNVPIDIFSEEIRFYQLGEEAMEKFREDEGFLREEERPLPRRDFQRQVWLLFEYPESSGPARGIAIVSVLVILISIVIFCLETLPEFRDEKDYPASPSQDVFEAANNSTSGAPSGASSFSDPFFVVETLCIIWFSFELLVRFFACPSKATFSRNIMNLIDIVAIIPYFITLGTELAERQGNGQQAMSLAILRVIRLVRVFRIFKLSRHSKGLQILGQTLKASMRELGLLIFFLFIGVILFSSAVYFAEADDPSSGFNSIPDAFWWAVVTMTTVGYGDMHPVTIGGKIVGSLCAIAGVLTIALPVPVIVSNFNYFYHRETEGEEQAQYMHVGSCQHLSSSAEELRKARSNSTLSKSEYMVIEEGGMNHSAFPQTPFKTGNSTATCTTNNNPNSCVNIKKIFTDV

SMILES	Kd (Kv1.1)	selectivity for Kv1.3 over Kv1.1 (Kv1.1)	Kd (Kv1.2 [1])	selectivity for Kv1.3 over Kv1.2 (Kv1.2 [2])	Kd (Kv1.3)	Kd (Kv1.6)	selectivity for Kv1.3 over Kv1.6 (Kv1.6)	Kd (Kv3.2)	selectivity for Kv1.3 over Kv3.2 (Kv3.2)	selectivity for Kv1.3 over Kv1.5 (Kv1.5)
CC[C@H](C)[C@H](NC(=O)[C@@H](N)[C@@H](C)O)C(=O)N[C@H](C(=O)N[C@@H](CC(N)=O)C(=O)N[C@H](C(=O)N[C@@H](CCCCN)C(=O)N[C@H]1CSSC[C@@H]2NC(=O)[C@H](CCCCN)NC(=O)[C@H](C)NC(=O)CNC(=O)[C@H](C)NC(=O)[C@H](CO)NC(=O)[C@H](CCC(N)=O)NC(=O)CNC(=O)[C@H](Cc3ccccc3)NC(=O)[C@H](CCC(N)=O)NC(=O)[C@H](C)NC(=O)[C@H](CCCCN)NC(=O)[C@@H]3CSSC[C@@H](C(=O)N[C@@H](Cc4ccc(O)cc4)C(=O)N4CCC[C@H]4C(=O)N[C@@H](Cc4c[nH]cn4)C(=O)O)NC(=O)[C@H](CCCCN)NC(=O)[C@H](CSSC[C@H](NC(=O)[C@H](CCC(N)=O)NC(=O)[C@H](CCCCN)NC(=O)[C@@H]4CCCN4C(=O)[C@H](CO)NC(=O)[C@H]([C@@H](C)O)NC1=O)C(=O)N[C@@H](CC(C)C)C(=O)N1CCC[C@H]1C(=O)N1CCC[C@H]1C(=O)N3)NC(=O)[C@H](CCCCN)NC(=O)CNC(=O)[C@H](CC(N)=O)NC(=O)[C@H](CCSC)NC2=O)C(C)C)[C@@H](C)CC [Margatoxin] (H-TIINVKCTSPKQCLPPCKAQFGQSAGAKCMNGKCKCYPH-OH; disulfide 7-29, 13-34, 17-36; N-terminus and C-terminus assumed)	10 ± 1 nM	9 fold	0.52 ± 0.001 nM	5 fold	0.11 ± 0.012 nM	> 100 nM	> 1000 fold	> 100 nM	> 1000 fold	–
O=c1cc(-c2ccc(O)c(O)c2)oc2cc(O)cc(O)c12 [Luteolin]	–	no selectivity	–	no selectivity	–	–	–	–	–	no selectivity
